Experimental data: patent publication US20030215788A1, “Cysteine thiol-protected peptides for use in immunoassays” (priority 1989, published 2003)
Non-standard residues stand in square brackets, D forms with d. No end group written: not given here. Cys∗ = not defined here

How the values were obtained:
Type in all cases: binding, human
Antibodies to HTLV-I = test: HTLV-I peptides on latex microparticles tested for reactivity with control sera; settings: Serum Sample 40359, HTLV-I EIA positive control, undiluted; 50 μg peptide/5 mg beads/550 μl
Antibodies to HIV-2 = test: EIA of dilutional series of HIV-2 positive sera
Method: Alternative methods of testing immunologic cross-reactivity were also used. In one such method L5 Peptides 39 and 39GC were tested by ELISA as previously described in U.S. Pat. No. 4,629,783. Briefly, stock solutions of peptides 39 and 39-GC were prepared in 6M Gu-HCl. Working dilutions of 20 µg/ml and 6 μg/ml respectively were prepared by dilution of stock solution 0 with 0.05M carbonate/bicarbonate buffer, pH 9.5. Wells of microtiter plates were filled with 100 μl of the working dilution of the peptides and allowed to stand overnight at room temperature. Coating solution was removed and 300 μl of blocking solution supra containing 0.5M ethanolamine was added for 1 hr. at room temperature. Blocking solution was removed and the plates were used immediately or allowed to dry and stored for later use.
Plasma samples were diluted (See Table 1) in sample dilution buffer (above) and 100 μl was added to individual wells. Samples were incubated for 30 min. at 37° C., then removed and the wells were washed six times with 0.15M NaCl, 0.05% Tween 20. One hundred microliters of goat antihuman Ig-horseradish peroxidase conjugate diluted in citrate buffer, pH 7.0, 1% normal goat serum was added to each well for 30 min at 37° C. prior to washing six times as above. The ELISA assay was developed by adding 100 μl/well of substrate solution (80 μg/ml tetramethyl benzidine, 0.0015% hydrogen peroxide in citrate/phosphate buffer, pH 6.0) for 30 min. at room temperature. Reactions were stopped with the addition of 100 μl of H2SO4 per well, and the ratio of the optical density at 450 nm to 630 nm was determined by an automated ELISA reader. The cutoff value for a positive result was set at 0.225 Absorbance Units above the average absorbance obtained for three known negative samples.
The immunoreactivity of HIV-2 peptides synthesized with protected cysteine thiol groups was determined. […] EIAs were performed as described above using viral lysates of HIV-1 and HIV-2 and peptides 39GC (HIV-1) and 41-2-3GC. Reactivity was determined for dilutions of two HIV-2 positive sera, F504282, obtained from a patient in New York, and “GOM,” provided by the Institut Pasteur.
The assays were EIAs performed generally as described above with varying dilutions of HIV-2 positive serum specimens.

[1] = test system: antibodies to HTLV-I and/or HTLV-II; test: membrane concentration immunoassay with peptide 121-1GC1 on suspected HTLV-I/II sera; settings: for Reactivity with deprotected peptide (color grade): 80 μg peptide/5 mg bead/550 μl
Method: Serum or plasma samples (40 μl) were diluted 1:10 in dilution buffer (10% heat inactivated normal goat serum, 1% dextran sulfate, 0.2% Tween 20, 2.5% nonfat dry milk, 15 ppm Kathon CG, 0.005% antifoam A, in 20 mM sodium citrate buffer, pH 7.4). Diluted specimen was added to the surface of the membrane and allowed to absorb completely. After waiting 2 min. from the time of specimen addition, 1 ml of wash buffer (0.01M Tris-buffered saline, pH 6.0, 0.05M NaCl, 0.005M MgCl2, 0.1% sodium azide, 10 μg/ml nitro blue tetrazolium, 0.5M potassium thiocyanate) was added and allowed to completely absorb through the membrane. About 0.150 ml (3 drops) of goat anti-human Ig-alkaline phosphatase conjugate diluted in 10 mM phosphate buffered saline, pH 7.4, 0.2% goat gamma globulin, 1% bovine serum albumin, 1 mM MgCl2, 0.1 mM ZnCl2 was added to the membrane and allowed to absorb completely. The membrane was washed twice as above (2 ml) and about 0.150 ml (3 drops) of substrate (1M 2-amino-2-methyl-1-propanol, pH 10.3, 5 mg/ml 3-indoxyl phosphate) was added and allowed to absorb completely. After about 5 min. about 1 ml of 0.5M EDTA, pH 7.4, was passed through the membrane to stop the reaction. After the stop solution was completely absorbed the units were read visually or semi-quantitatively by reflectance.
A wide variety of positive, negative, EIA positive/western blot a typical and immune sensitized specimens have been tested with the preferred peptide 39 analog, peptide 39-GC, as the test antigen.
Results of assays with peptide 121-1GC1 were compared to those obtained with other HTLV-I/II tests, such as the polymerase chain reaction (PCR), radioimmunoprecipitation (RIP), Western blot (WB), and viral lysate EIAS. The procedure as described in Example II was used for peptide 121-1GC1, except that two drops of samples were used and the conjugate was used at a two-fold higher concentration. The assays were performed with 10 serum samples suspected of containing antibodies to HTLV-I and/or HTLV-II. The PCR assay for HTLV-II was performed generally according to PCR Technology, Principles and Applications for DNA Amplification, ed. H. A. Ehrlich, Stockton Press, N.Y. (1989), incorporated herein by reference.
In other experiments, screening of the HTLV-I peptide in a variety of forms against a serum panel of suspected HTLV-I/II positive individuals yielded inconclusive results when compared to results obtained by RIP, Western blot, and commercially available HTLV-I EIA assays.

## H-QNRRGLDLLFWEQGGLC*KALQEQC*-NH2 (chain 1 H-QNRRGLDLLFWEQGGL[Cys∗]; chain 2 KALQEQ[Cys∗]-NH2; not fully specified; reading uncertain; also: modified residues) [Peptide 121-1G1]
Antibodies to HTLV-I
  Reactivity to Antibodies to HTLV-I (color grade): trace

## Cys-Gly-Gly-Gln-Asp-Gln-Ala-Arg-Leu-Asn-Ser-Trp-Gly-Cys*-Ala-Phe-Arg-Gln-Val-Cys*-NH2 [Peptide 41-2-3GC]
Antibodies to HIV-2; HIV-2 positive serum F504282 (A), 1:5
  Reactivity in EIA: 3.000
Antibodies to HIV-2; HIV-2 positive serum F504282 (A), 1:10
  Reactivity in EIA: 3.000
Antibodies to HIV-2; HIV-2 positive serum F504282 (A), 1:20
  Reactivity in EIA: 3.000
Antibodies to HIV-2; HIV-2 positive serum F504282 (A), 1:40
  Reactivity in EIA: 2.828
Antibodies to HIV-2; HIV-2 positive serum F504282 (A), 1:80
  Reactivity in EIA: 2.107
Antibodies to HIV-2; HIV-2 positive serum F504282 (A), 1:160
  Reactivity in EIA: 1.441
Antibodies to HIV-2; HIV-2 positive serum F504282 (A), 1:320
  Reactivity in EIA: 0.941
Antibodies to HIV-2; HIV-2 positive serum F504282 (A), 1:640
  Reactivity in EIA: 0.588
Antibodies to HIV-2; HIV-2 positive serum F504282 (A), 1:1280
  Reactivity in EIA: 0.302
Antibodies to HIV-2; HIV-2 positive serum F504282 (A), 1:2560
  Reactivity in EIA: 0.180
Antibodies to HIV-2; HIV-2 positive serum F504282 (A), Neat
  Reactivity in EIA: 3.000
Antibodies to HIV-2; HIV-2 positive serum GOM (B), 1:2
  Reactivity in EIA: 3.000
Antibodies to HIV-2; HIV-2 positive serum GOM (B), 1:4
  Reactivity in EIA: 3.000
Antibodies to HIV-2; HIV-2 positive serum GOM (B), 1:8
  Reactivity in EIA: 3.000
Antibodies to HIV-2; HIV-2 positive serum GOM (B), 1:16
  Reactivity in EIA: 3.000
Antibodies to HIV-2; HIV-2 positive serum GOM (B), 1:32
  Reactivity in EIA: 3.000
Antibodies to HIV-2; HIV-2 positive serum GOM (B), 1:64
  Reactivity in EIA: 2.524
Antibodies to HIV-2; HIV-2 positive serum GOM (B), 1:128
  Reactivity in EIA: 2.202
Antibodies to HIV-2; HIV-2 positive serum GOM (B), 1:256
  Reactivity in EIA: 1.452
Antibodies to HIV-2; HIV-2 positive serum GOM (B), 1:512
  Reactivity in EIA: 0.811
Antibodies to HIV-2; HIV-2 positive serum GOM (B), 1:1024
  Reactivity in EIA: 0.571
Antibodies to HIV-2; HIV-2 serum PIN, 1:2
  Reactivity in EIA: 3.000
Antibodies to HIV-2; HIV-2 serum PIN, 1:4
  Reactivity in EIA: 3.000
Antibodies to HIV-2; HIV-2 serum PIN, 1:8
  Reactivity in EIA: 2.596
Antibodies to HIV-2; HIV-2 serum PIN, 1:16
  Reactivity in EIA: 1.940
Antibodies to HIV-2; HIV-2 serum PIN, 1:32
  Reactivity in EIA: 1.209
Antibodies to HIV-2; HIV-2 serum PIN, 1:64
  Reactivity in EIA: 0.582
Antibodies to HIV-2; HIV-2 serum PIN, 1:128
  Reactivity in EIA: 0.368
Antibodies to HIV-2; HIV-2 serum PIN, 1:256
  Reactivity in EIA: 0.186
Antibodies to HIV-2; HIV-2 serum S, 1:2
  Reactivity in EIA: 3.000
Antibodies to HIV-2; HIV-2 serum S, 1:4
  Reactivity in EIA: 3.000
Antibodies to HIV-2; HIV-2 serum S, 1:8
  Reactivity in EIA: 3.000
Antibodies to HIV-2; HIV-2 serum S, 1:16
  Reactivity in EIA: 3.000
Antibodies to HIV-2; HIV-2 serum S, 1:32
  Reactivity in EIA: 2.632
Antibodies to HIV-2; HIV-2 serum S, 1:64
  Reactivity in EIA: 2.155
Antibodies to HIV-2; HIV-2 serum S, 1:128
  Reactivity in EIA: 1.442
Antibodies to HIV-2; HIV-2 serum S, 1:256
  Reactivity in EIA: 0.725
Antibodies to HIV-2; HIV-2 serum S, 1:512
  Reactivity in EIA: 0.516
Antibodies to HIV-2; HIV-2 serum SAMB, 1:2
  Reactivity in EIA: 3.000
Antibodies to HIV-2; HIV-2 serum SAMB, 1:4
  Reactivity in EIA: 3.000
Antibodies to HIV-2; HIV-2 serum SAMB, 1:8
  Reactivity in EIA: 2.854
Antibodies to HIV-2; HIV-2 serum SAMB, 1:16
  Reactivity in EIA: 2.710
Antibodies to HIV-2; HIV-2 serum SAMB, 1:32
  Reactivity in EIA: 2.112
Antibodies to HIV-2; HIV-2 serum SAMB, 1:64
  Reactivity in EIA: 1.400
Antibodies to HIV-2; HIV-2 serum SAMB, 1:128
  Reactivity in EIA: 0.834
Antibodies to HIV-2; HIV-2 serum SAMB, 1:256
  Reactivity in EIA: 0.404

## H-CGG-QNRRGLDLLFWEQGGLC*KALQEQC*-NH2 (chain 1 H-CGGQNRRGLDLLFWEQGGLC; chain 2 KALQEQC-NH2; not fully specified; cysteine pairing not given here) [Peptide 121-1GC1]
[1]; Sample No. 39266
  Reactivity with deprotected peptide (color grade): trace
[1]; Sample No. 89232
  Reactivity with deprotected peptide (color grade): trace
[1]; Sample No. 89379
  Reactivity with deprotected peptide (color grade): trace
[1]; Sample No. 89430
  Reactivity with deprotected peptide (color grade): trace
[1]; Sample No. 89442
  Reactivity with deprotected peptide (color grade): trace
[1]; compared with RIP, Western blot and commercial HTLV-I EIA
  result on serum panel of suspected HTLV-I/II positive individuals: Some samples which were purportedly positive by certain of the tests were negative
